Assay results as given in patent publication US20230234942A1, “COMPOUNDS FOR TREATING HUNTINGTON'S DISEASE” (PTC Therapeutics, Inc., priority 2020, published 2023).

What follows are compounds tested on Endogenous Huntingtin Protein (assay: Endogenous Huntingtin Protein Assay (ELISA-based MSD electrochemiluminescence)). Details: Table 2; MSD plates coated with MW1 (expanded polyglutamine) or MAB2166 capture antibody; "inactive" = result above the detection limit of the assay.
Assay type: cell-based
Experimental: Compounds of Formula (I) were tested using the Meso Scale Discovery (MSD) Assay provided in International Application No. PCT/US2016/066042, filed on Dec. 11, 2016 and claiming priority to U.S. Provisional Application 62/265,652 filed on Dec. 10, 2015, the entire contents of which are incorporated herein by reference.
The Endogenous Huntingtin Protein assay used in Biological Example 1 was developed using the ELISA-based MSD electrochemiluminescence assay platform.
Meso Scale Discovery (MSD) 96-well or 384-well plates were coated overnight at 4° C. with MW1 (expanded polyglutamine) or MAB2166 monoclonal antibody (for capture) at a concentration of 1 μg/mL in PBS (30 μL per well). Plates were then washed three times with 300 μL wash buffer (0.05% Tween-20 in PBS) and blocked (100 μL blocking buffer; 5% BSA in PBS) for 4-5 hours at room temperature with rotational shaking and then washed three times with wash buffer.
Samples (25 μL) were transferred to the antibody-coated MSD plate and incubated overnight at 4° C. After removal of the lysates, the plate was washed three times with wash buffer, and 25 μL of #56565 (Cell signaling; rabbit monoclonal) secondary antibody (diluted to 0.25 μg/mL in 0.05% Tween-20 in blocking buffer) was added to each well and incubated with shaking for 1 Hour at room temperature. Following incubation with the secondary antibody, the wells were rinsed with wash buffer after which 25 μL of goat anti-rabbit SULFO TAG secondary detection antibody (required aspect of the MSD system) (diluted to 0.25 μg/mL in 0.05% Tween-20 in blocking buffer) was added to each well and incubated with shaking for 1 hour at room temperature. After rinsing three times with wash buffer, 150 μL of read buffer T with surfactant (MSD) were added to each empty well, and the plate was imaged on a SI 6000 imager (MSD) according to manufacturers' instructions provided for 96- or 384-well plates.
In the case of `CN1CCn2ncc(-c3ccc(-c4cnc(N5CCN[C@@H](C6CC6)C5)nn4)c(O)c3)c21` [Cpd 275, 2-{3-[(3S)-3-cyclopropylpiperazin-1-yl]-1,2,4-triazin-6-yl}-5-(1-methyl-2,3-dihydro-IH-imidazo[1,2-b]pyrazol-7-yl)phenol], the IC50 is reported as 755 nM.
Work on `Oc1cc(-c2cn[nH]c2)ccc1-c1cnc(N2CCN[C@@H](C3CC3)C2)nn1` [Cpd 137, 2-{3-[(3S)-3-cyclopropylpiperazin-1-yl]-1,2,4-triazin-6-yl}-5-(1H-pyrazol-4-yl)phenol] yielded an IC50 of 7.5 nM.
“4-fluoro-5-[1-(^2H3)methyl-1H-pyrazol-4-yl]-2-{3-[(3S)-3-(propan-2-yl)piperazin-1-yl]-1,2,4-triazin-6-yl}phenol [Cpd 152]” showed an IC50 of 15 nM.
Compound `[2H]C([2H])([2H])Oc1cc(-c2ccc(-c3cnc(N4CCN[C@@H](CC)C4)nn3)c(O)c2)ncn1` [Cpd 133, 2-{3-[(3S)-3-ethylpiperazin-1-yl]-1,2,4-triazin-6-yl}-5-{6-[(^2H3)methyloxy]pyrimidin-4-yl}phenol] has an IC50 of 13 nM.
Work on `CC(C)[C@H]1CN(c2ncc(-c3ncc(-c4cc(F)c5nn(C)cc5c4)cc3O)nn2)CCN1` [Cpd 157, 5-(7-fluoro-2-methyl-2H-indazol-5-yl)-2-{3-[(3S)-3-(propan-2-yl)piperazin-1-yl]-1,2,4-triazin-6-yl}pyridin-3-ol] yielded an IC50 of 7.8 nM.
`Cc1cncc(-c2ccc(-c3cnc(N4CCN[C@@H](C(C)C)C4)nn3)c(O)c2)n1` [Cpd 143, 5-(6-methylpyrazin-2-yl)-2-{3-[(3S)-3-(propan-2-yl)piperazin-1-yl]-1,2,4-triazin-6-yl}phenol] was tested, and the IC50 was 634 nM.
`COc1csc(-c2ccc(-c3cnc(N4CCN[C@@H](C(C)C)C4)nn3)c(O)c2)n1` [Cpd 200, 5-(4-methoxy-1,3-thiazol-2-yl)-2-{3-[(3S)-3-(propan-2-yl)piperazin-1-yl]-1,2,4-triazin-6-yl}phenol] gave an IC50 of 30.1 nM.
In the case of `C[C@@H]1CN(c2ncc(-c3ccc(-c4ccn(C)n4)cc3O)nn2)C[C@H](C2CCC2)N1` [Cpd 240, 2-{3-[(3S,5R)-3-cyclobutyl-5-methylpiperazin-1-yl]-1,2,4-triazin-6-yl}-5-(1-methyl-1H-pyrazol-3-yl)phenol], the IC50 is reported as 171 nM.
With `Cc1nc2cc(-c3ccc(-c4cnc(N5CCN[C@@H](C(C)C)C5)nn4)c(O)c3)ccn2n1` [Cpd 147, 5-(2-methyl[1,2,4]triazolo[1,5-a]pyridin-7-yl)-2-{3-[(3S)-3-(propan-2-yl)piperazin-1-yl]-1,2,4-triazin-6-yl}phenol] the IC50 was 38.8 nM.
Compound `C[C@@H]1CN(c2ncc(-c3ccc(-n4nccn4)cc3O)nn2)C[C@H](C)N1` [Cpd 54, 2-{3-[(3R,5S)-3,5-dimethylpiperazin-1-yl]-1,2,4-triazin-6-yl}-5-(2H-1,2,3-triazol-2-yl)phenol] has an IC50 of 440 nM.
With `Oc1cc(-c2cn[nH]c2)ccc1-c1cnc(N2CCN3CCCCC3C2)nn1` (centres unmarked) [Cpd 203, 2-[3-(octahydro-2H-pyrido[1,2-a]pyrazin-2-yl)-1,2,4-triazin-6-yl]-5-(1H-pyrazol-4-yl)phenol] the IC50 was 42.5 nM.
`CC(C)[C@H]1CN(c2ncc(-c3ccc(-c4ncsn4)cc3O)nn2)CCN1` [Cpd 239, 2-{3-[(3S)-3-(propan-2-yl)piperazin-1-yl]-1,2,4-triazin-6-yl}-5-(1,2,4-thiadiazol-3-yl)phenol] showed an IC50 of 12.4 nM.
`Cc1cn2nc(-c3ccc(-c4cnc(N5C[C@@H](C)N[C@@H](C)C5)nn4)c(O)c3)ccc2n1` [Cpd 75, 2-{3-[(3R,5S)-3,5-dimethylpiperazin-1-yl]-1,2,4-triazin-6-yl}-5-(2-methylimidazo[1,2-b]pyridazin-6-yl)phenol] showed an IC50 of 4.3 nM.
`CC(C)[C@H]1CN(c2ncc(-c3ccc(-c4ncc(C#N)s4)cc3O)nn2)CCN1` [Cpd 272, 2-(3-hydroxy-4-{3-[(3S)-3-(propan-2-yl)piperazin-1-yl]-1,2,4-triazin-6-yl}phenyl)-1,3-thiazole-5-carbonitrile] gave an IC50 of 356 nM.
For `[2H]C([2H])([2H])Oc1cc(-c2ccc(-c3cnc(N4CCN[C@@H](C5CC5)C4)nn3)c(O)c2)ncn1` [Cpd 2, 2-{3-[(3S)-3-cyclopropylpiperazin-1-yl]-1,2,4-triazin-6-yl}-5-{6-[(^2H3)methyloxy]pyrimidin-4-yl}phenol], the IC50 was 3.9 nM.
`COc1cc(-c2cnc(-c3cnc(N4CCN(C)CC4)nn3)c(O)c2)cc2cn(C)nc12` [Cpd 121, 5-(7-methoxy-2-methyl-2H-indazol-5-yl)-2-[3-(4-methylpiperazin-1-yl)-1,2,4-triazin-6-yl]pyridin-3-ol] gave an IC50 of 16.1 nM.
`CC(C)[C@H]1CN(c2ncc(-c3ccc(-c4nnc(C(F)F)s4)cc3O)nn2)CCN1` [Cpd 205, 5-[5-(difluoromethyl)-1,3,4-thiadiazol-2-yl]-2-{3-[(3S)-3-(propan-2-yl)piperazin-1-yl]-1,2,4-triazin-6-yl}phenol] gave an IC50 of 904 nM.
In the case of `C[C@@H]1CN(c2ncc(-c3ccc(-c4cc(F)c5nn(C)cc5c4)cc3O)nn2)C[C@@H](C)N1` [Cpd 76, 2-{3-[(3R,5R)-3,5-dimethylpiperazin-1-yl]-1,2,4-triazin-6-yl}-5-(7-fluoro-2-methyl-2H-indazol-5-yl)phenol], the IC50 is reported as 4.3 nM.
`CN1CCN(c2ncc(-c3ccc(-c4cn[nH]c4)cc3O)nn2)CC1C1COC1` (centres unmarked) [Cpd 187, 2-{3-[4-methyl-3-(oxetan-3-yl)piperazin-1-yl]-1,2,4-triazin-6-yl}-5-(1H-pyrazol-4-yl)phenol] was tested, and the IC50 was 401 nM.
In the case of `Oc1cc(-c2cn[nH]c2)ccc1-c1cnc(N2CCN3CCOCC3C2)nn1` (stereo not drawn) [Cpd 64, 2-[3-(hexahydropyrazino[2,l-c][1,4]oxazin-8(1H)-yl)-1,2,4-triazin-6-yl]-5-(1H-pyrazol-4-yl)phenol], the “IC50 (nM)” value is reported as “inactive”.
`Cc1cn2nc(-c3ccc(-c4cnc(N5C[C@@H](C)N(C)[C@@H](C)C5)nn4)c(O)c3)cc(C)c2n1` [Cpd 111, 5-(2,8-dimethylimidazo[1,2-b]pyridazin-6-yl)-2-{3-[(3R,5S)-3,4,5-trimethylpiperazin-1-yl]-1,2,4-triazin-6-yl}phenol] showed an IC50 of 27.5 nM.
In the case of `Oc1cc(-c2ccncn2)ccc1-c1cnc(N2CCN[C@@H](C3CC3)C2)nn1` [Cpd 192, 2-{3-[(3S)-3-cyclopropylpiperazin-1-yl]-1,2,4-triazin-6-yl}-5-(pyrimidin-4-yl)phenol], the IC50 is reported as 34.2 nM.
`C[C@@H]1CN(c2ncc(-c3ccc(-c4cn[nH]c4F)cc3O)nn2)C[C@H](C2CC2)N1` [Cpd 221, 2-{3-[(3S,5R)-3-cyclopropyl-5-methylpiperazin-1-yl]-1,2,4-triazin-6-yl]-5-(5-fluoro-1H-pyrazol-4-yl)phenol] showed an IC50 of 4.4 nM.
With `CC(C)[C@H]1CN(c2ncc(-c3ccc(-c4cnc5nn(C)nc5c4)cc3O)nn2)CCN1` [Cpd 212, 5-(2-methyl-2H-[1,2,3]triazolo[4,5-b]pyridin-6-yl)-2-{3-[(3S)-3-(propan-2-yl)piperazin-1-yl]-1,2,4-triazin-6-yl}phenol] the IC50 was 3.3 nM.
`Cc1nc2c(C)cc(-c3ccc(-c4cnc(N5C[C@@H](C)N[C@@H](C)C5)nn4)c(O)c3)nn2n1` [Cpd 83, 2-{3-[(3R,5S)-3,5-dimethylpiperazin-1-yl]-1,2,4-triazin-6-yl}-5-(2,8-dimethyl[1,2,4]triazolo[1,5-b]pyridazin-6-yl)phenol] showed an IC50 of 5.6 nM.
For `COc1cc(-c2ccc(-c3cnc(N4C[C@@H](C(C)C)N[C@@H](C)C4)nn3)c(O)c2)ncn1` [Cpd 227, 5-(6-methoxypyrimidin-4-yl)-2-{3-[(3S,5R)-3-methyl-5-(propan-2-yl)piperazin-1-yl]-1,2,4-triazin-6-yl}phenol], the IC50 was 37.3 nM.
